Measurements published in patent US6994981B2, “Modulators of paraptosis and related methods” (The Buck Institute, priority 2002, dated 2006).
No end group written: not given here.

Tests used:
ERK-1/2 = test: Western blot of ERK-1/2 phosphorylation in 293T cells expressing NK1R; assay type: cell-based, human; details: 10 μM
Protocol: For the transfected 293T cells, cells were washed with cold PBS after incubation with SP the time indicate and homogenized on lysis buffer (150 mM NaCl, 1% Triton X-100, 50 mM Tris HCL pH8.0). Cytoplasmic extracts were collected after 10 min centrifugation at 14,000 rcf. Total amount of protein was quantified by Bradford assay and electrophoresis of equal amounts of total protein was performed on SDS-polyacrylamide gels. Separated proteins were transferred to polyvinylidene fluoride membranes at 4° C. for Western blot analysis. Membranes were probed with a 1:1000 dilution of anti-ERK-1/2 or anti phospho-ERK-1/2 (BioSource). The blots were incubated in a horseradish peroxidase coupled secondary antibody for 1 h followed by enhanced chemiluminescence detection of the proteins with […]™ ECL detection (Amersham, Arlington Heights, Ill.). For striatal neurons, total ERK-1/2 was immunoprecipitated using superparamagnetic Microbeads conjugated to protein A, following manufacture's instructions (MACS, Miltenyi Biotec), and then developed by Western blot against either anti-ERK-1/2 or anti phospho-ERK-1/2.

[1] = tested on: 293T cells transfected with NK1R; test: SP-induced, NK1R-mediated cell death in 293T cells transfected with NK1R, trypan blue and staining; assay type: cell-based, human; details: 10 μM
Protocol: Human embryonic kidney 293T cells were grown as described in Example I. Transient transfection was performed using Superfect (Qiagen) as described by the manufacturer. Briefly, 2×10^5 cells/well were seeded into 35 mm wells 16 hr prior to transfection. Superfect:DNA complexes were added at a 5 μl:2 μg ratio for 3 hr; then the medium was replaced and after 24 hr SP was added. At 24–48 hr after addition of SP cell death was quantified as follows: the media containing floating cells were collected and centrifuged 10 min at 2000×g, the pellet was resuspended in PBS/trypan blue and the cells were counted using a hematocytometer. When other compounds were used, they were added at the same time as SP: zVAD.fmk or BAF was added at 50 μM and obtained from Enzyme System Products, Livermore, Calif.
Briefly, the method entailed cloning the full-length (1.2 kb) NK1R cDNA (Genbank Accession No. M31477) by RT-PCR from adult rat hippocampal RNA into the XbaI/EcoRI sites of the vector pcDNA3.1 (Invitrogen), using the following oligonucleotides: forward 5′[…] 3′ (SEQ ID NO:2); reverse 5′[…] 3′ (SEQ ID NO:3).
Cells were stained according to the manufacturer's instructions (Clontech). Briefly, cellswere washed with binding buffer and incubated with FITC-Annexin-V or EGFPAnnexin-V for 5–10 min and fixed with 4% paraformaldehyde.
Cells were fixed 10 min with 4% paraformaldehyde and stained according to the manufacturer's instructions (Promega).
(§1) The protein kinase inhibitors were added 30 min before SP exposure at the following concentrations: 10 μM Rp-8-Br-cAMPS (adenosin 3′,5′-cyclic monophosphorothioate, 8-bromo-, Rp-isomer, sodium salt) which is a PKA inhibitor; 50 nM Calphostin C, which is a PKC inhibitor; 10 μM PD 98059 which is a MAPKK (MEK) inhibitor. These compounds were obtained from Calbiochem. Viability was quantified by trypan blue staining of the total cell population.

[2] = tested on: IGFIR-IC transfected 293T cells; test: Inhibition of IGFIR-IC induced paraptosis in transfected 293T cells, LDH assay; assay type: cell-based, human; details: for effect on IGFIR-induced paraptosis: concentration not given
Protocol: Paraptosis was induced in 293T cells by expressing the intracellular domain of the insulin-like growth factor I receptor (IGFIR-IC) in these cells using transient transfection as described above.
Test compounds were added to IGFIR-IC transfected 293T cells at the time of transfection.
The TRAF2 dominant negative mutant contains a deletion of the amino terminal 271 amino acids of the protein. The ratio of IGFIR-IC:AIP1 and IGFIR-IC:TRAF2DN was 1:3. […] Antisense oligonucleotide constructs for JNK1 or JNK2 (50–100 nM) were transfected into 293T cells one day before transfection with the IGFIR-IC construct. For all inhibition assays, cell viability was measured using the LDH assay.

[3] = tested on: striatal, cortical, and hippocampal neurons; test: SP-induced cell death in primary striatal, cortical and hippocampal neurons, trypan blue viability and staining; assay type: cell-based, rat
Protocol: Rat neuronal primary cell cultures were also used to assay for inducers and inhibitors of paraptosis. Briefly, primary striatal, cortical and hippocampal cultures were prepared from 17-day-old Sprague-Dawley rat embryos (B&K). The tissue was dissected, minced and trypsinized for five minutes using 0.25% trypsin (Cell Grow). After the addition of 10% horse serum (Life Technologies) to inhibit the trypsin, the cell suspension was triturated 15–20 times with a 10 ml syringe and centrifuged for five minutes at 800×g. The pellet was resuspended in MEM-PAK (UCSF Cell Culture facility), supplemented with 2.02 gm glucose, 2 mM GLUTAMAX™ (Life Technologies) and penicillin/streptomycin (100 U/ml). The suspension was filtered through a […] cell strainer and the final culture medium contained 5% horse serum. Subsequently, 3-4×10^5 cells per Cm^2 were seeded onto either poly-D-lysine precoated 8-well chamber slides (Becton-Dickson Labware) or 96 well plates precoated with […] of poly-D-lysine (Sigma) in water. After 30 minutes of incubation time, unattached cells were removed together with the medium and replaced with glucose enriched MEM-PAK plus 5% horse serum. The cultures were then incubated at 37° C. in 95% air 5% carbon dioxide with 95% humidity. Cultures were used for experiments between day 1 and day 7 when glial contamination was at a minimum.
Primary neuronal cells were prepared as described in Example I. SP (SIGMA) at a concentration of 0.1 nM–100 μM was added 24–48 hrs after seeding, in the presence of 2.5% horse serum. When the cultures were maintained for more than 5 days, 10 μM cytosine arabinoside was added for 24 hours, beginning 3 days after plating the cells. Viability was quantified by trypan blue staining of the total cell population.
The following compounds were added at the same time as SP in the indicated experiments: 5 nM L-732, 138; 1 nM L-733,060; 1 μg/ml Actinomycin D or 1 μg/ml Cycloheximide. All of these compounds were obtained from SIGMA. The caspase inhibitors zVAD.fmk and BAF were added at 50 μM and obtained from Enzyme System Products, Livermore, Calif.
Either neuronal primary cultures or human embryonic kidney 293T cells were fixed with 4% paraformaldehyde and stained with 0.5 μg/ml DAPI (Molecular Probes) or Hoechst(SIGMA). […]
as §1

SP-induced paraptosis = test: Inhibition of SP-induced paraptosis, cells not specified; assay type: cell-based; details: concentration not given
[4] = biological target: neurokinin-1 receptor (NK1R) (Rattus norvegicus, UniProt P14600); details: cited from earlier work
Chain of neurokinin-1 receptor (NK1R) (P14600 whole entry): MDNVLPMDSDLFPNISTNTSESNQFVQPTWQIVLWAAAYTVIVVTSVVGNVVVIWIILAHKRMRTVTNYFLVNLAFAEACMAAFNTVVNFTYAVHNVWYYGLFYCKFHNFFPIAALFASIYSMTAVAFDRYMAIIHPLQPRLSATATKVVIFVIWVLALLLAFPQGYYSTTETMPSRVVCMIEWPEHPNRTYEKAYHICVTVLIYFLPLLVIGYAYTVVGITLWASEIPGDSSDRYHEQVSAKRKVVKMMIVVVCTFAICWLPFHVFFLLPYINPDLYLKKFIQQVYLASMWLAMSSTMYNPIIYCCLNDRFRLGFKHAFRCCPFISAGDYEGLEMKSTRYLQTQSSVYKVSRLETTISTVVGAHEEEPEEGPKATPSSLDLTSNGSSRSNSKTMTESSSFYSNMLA

COc1cccc(-c2cc(=O)c3ccccc3o2)c1N [PD 98059]
effect on phosphorylation of ERK-1/2 (ERK-1/2): effectively reduced
effect on non-neuronal NK1R-mediated pcd [1]: inhibited
effect on IGFIR-induced paraptosis [2]: not blocked
effect on neuronal cell death in response to SP ([3]; added 30 min before SP: 10 μM PD 98059, 50 nM Calphostin C, 10 μM Rp-8-Br-cAMPS): completely blocked

N#CC(=C(/N)Sc1ccccc1N)/C(C#N)=C(/N)Sc1ccccc1N [UO126]
effect on SP-induced paraptosis (SP-induced paraptosis): can be inhibited
effect on IGFIR-induced paraptosis [2]: can be inhibited

SP 6–11: truncated form of SP containing amino acids 6 through 11 of the SP polypeptide (QFFGLM; ends and bridges not checked)
induction of cell death by NK1R agonists ([3]; compared with SP): able to induce cell death as well as SP
affinity for NK1R [4]: good affinity

B1: AIP-1: Alg-2 interacting protein 1, co-transfected with the IGFIR-IC construct (protein, UniProt Q8WUM4 2-868, looked up)
Programmed cell death …: ATFISVQLKKTSEVDLAKPLVKFIQQTYPSGGEEQAQYCRAAEELSKLRRAAVGRPLDKHEGALETLLRYYDQICSIEPKFPFSENQICLTFTWKDAFDKGSLFGGSVKLALASLGYEKSCVLFNCAALASQIAAEQNLDNDEGLKIAAKHYQFASGAFLHIKETVLSALSREPTVDISPDTVGTLSLIMLAQAQEVFFLKATRDKMKDAIIAKLANQAADYFGDAFKQCQYKDTLPKEVFPVLAAKHCIMQANAEYHQSILAKQQKKFGEEIARLQHAAELIKTVASRYDEYVNVKDFSDKINRALAAAKKDNDFIYHDRVPDLKDLDPIGKATLVKSTPVNVPISQKFTDLFEKMVPVSVQQSLAAYNQRKADLVNRSIAQMREATTLANGVLASLNLPAAIEDVSGDTVPQSILTKSRSVIEQGGIQTVDQLIKELPELLQRNREILDESLRLLDEEEATDNDLRAKFKERWQRTPSNELYKPLRAEGTNFRTVLDKAVQADGQVKECYQSHRDTIVLLCKPEPELNAAIPSANPAKTMQGSEVVNVLKSLLSNLDEVKKEREGLENDLKSVNFDMTSKFLTALAQDGVINEEALSVTELDRVYGGLTTKVQESLKKQEGLLKNIQVSHQEFSKMKQSNNEANLREEVLKNLATAYDNFVELVANLKEGTKFYNELTEILVRFQNKCSDIVFARKTERDELLKDLQQSIAREPSAPSIPTPAYQSSPAGGHAPTPPTPAPRTMPPTKPQPPARPPPPVLPANRAPSATAPSPVGAGTAAPAPSQTPGSAPPPQAQGPPYPTYPGYPGYCQMPMPMGYNPYAYGQYNMPYPPVYHQSPGQAPYPGPQQPSYPFPQPPQQSYYPQQ
effect on SP-induced paraptosis (SP-induced paraptosis): can be inhibited
inhibition of IGFIR-IC induced paraptosis ([2]; co-transfected with the IGFIR-IC construct, ratio 1:3): able to inhibit IGFIR-IC induced paraptosis
